According to patent US11078202B2, “β-lactamase inhibitor and use thereof” (priority 2018, dated 2021):
Structures can show the parent of a compound that is named as a salt.

What was measured:
Type in all cases: cell-based
[1] = test system: Klebsiella pneumoniae XNWB 0004; assay: MIC assay of test compounds combined with ceftazidime (8 μg/mL); details: ceftazidime 8 μg/mL fixed
Procedure, shortened: (§1)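 Colonies from 20-24 h TSA plates (35±2 °C) → saline, OD600 0.1-0.15 → 300-fold dilution in 1.1×CAMHB → added to compound plus fixed antibiotic wells, growth and sterility controls included → 16-20 h at 35±2 °C → MIC by CLSI criteria.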

[2] = test system: Klebsiella pneumoniae XNWB 0005; assay: as above; details: ceftazidime 8 μg/mL fixed
Procedure, shortened: as §1

[3] = test system: Pseudomonas aeruginosa XNWB 0008; assay: as above; details: ceftazidime 8 μg/mL fixed
Procedure, shortened: as §1

[4] = test system: Klebsiella pneumoniae XNWB 0002; assay: as above; details: ceftazidime 8 μg/mL fixed
Procedure, shortened: as §1

[5] = test system: Klebsiella pneumoniae XNWB 0003; assay: as above; details: ceftazidime 8 μg/mL fixed
Procedure, shortened: as §1

[6] = test system: Acinetobacter baumannii XNWB 0007; assay: as above; details: ceftazidime 8 μg/mL fixed
Procedure, shortened: as §1

[7] = test system: Klebsiella pneumoniae XNWB 0006; assay: as above; details: ceftazidime 8 μg/mL fixed
Procedure, shortened: as §1

[8] = test system: Klebsiella pneumoniae XNWB 0001; assay: as above; details: ceftazidime 8 μg/mL fixed
Procedure, shortened: as §1

[9] = test system: Klebsiella pneumoniae XNWB 0004; assay: MIC assay of test compounds combined with imipenem (4 μg/mL); details: imipenem 4 μg/mL fixed
Procedure, shortened: as §1

[10] = test system: Klebsiella pneumoniae XNWB 0005; assay: as above; details: imipenem 4 μg/mL fixed
Procedure, shortened: as §1

[11] = test system: Pseudomonas aeruginosa XNWB 0008; assay: as above; details: imipenem 4 μg/mL fixed
Procedure, shortened: as §1

[12] = test system: Klebsiella pneumoniae XNWB 0002; assay: as above; details: imipenem 4 μg/mL fixed
Procedure, shortened: as §1

[13] = test system: Klebsiella pneumoniae XNWB 0003; assay: as above; details: imipenem 4 μg/mL fixed
Procedure, shortened: as §1

[14] = test system: Acinetobacter baumannii XNWB 0007; assay: as above; details: imipenem 4 μg/mL fixed
Procedure, shortened: as §1

[15] = test system: Klebsiella pneumoniae XNWB 0006; assay: as above; details: imipenem 4 μg/mL fixed
Procedure, shortened: as §1

[16] = test system: Klebsiella pneumoniae XNWB 0001; assay: as above; details: imipenem 4 μg/mL fixed
Procedure, shortened: as §1

Compound | The minimum concentration of test compounds combined with ceftazidime (8 μg/mL) for bacteriostasis [1] | The minimum concentration of test compounds combined with ceftazidime (8 μg/mL) for bacteriostasis [2] | The minimum concentration of test compounds combined with ceftazidime (8 μg/mL) for bacteriostasis [3] | The minimum concentration of test compounds combined with ceftazidime (8 μg/mL) for bacteriostasis [4] | The minimum concentration of test compounds combined with ceftazidime (8 μg/mL) for bacteriostasis [5] | The minimum concentration of test compounds combined with ceftazidime (8 μg/mL) for bacteriostasis [6] | The minimum concentration of test compounds combined with ceftazidime (8 μg/mL) for bacteriostasis [7] | The minimum concentration of test compounds combined with ceftazidime (8 μg/mL) for bacteriostasis [8] | The minimum concentration of test compounds combined with imipenem (4 μg/mL) for bacteriostasis [9] | The minimum concentration of test compounds combined with imipenem (4 μg/mL) for bacteriostasis [10] | The minimum concentration of test compounds combined with imipenem (4 μg/mL) for bacteriostasis [11] | The minimum concentration of test compounds combined with imipenem (4 μg/mL) for bacteriostasis [12] | The minimum concentration of test compounds combined with imipenem (4 μg/mL) for bacteriostasis [13] | The minimum concentration of test compounds combined with imipenem (4 μg/mL) for bacteriostasis [14] | The minimum concentration of test compounds combined with imipenem (4 μg/mL) for bacteriostasis [15] | The minimum concentration of test compounds combined with imipenem (4 μg/mL) for bacteriostasis [16]
O=C1N2C[C@H](N1OS(=O)(=O)O)C1(CC1)C[C@H]2c1cc(CC2CNC2)on1 [Example 49, (1R,4S)-4-(5-(azetidin-3-ylmethyl)isoxazol-3-yl)-6-oxo-5,7-diazaspiro[bicycle[3.2.1]octane-2,1′-cyclopropan]-7-yl sulfate] | B (B: 8-16 μg/mL) | A (A: <8 μg/mL) | B (B: 8-16 μg/mL) | A (A: <8 μg/mL) | A (A: <8 μg/mL) | C (C: 16-128 μg/mL) | A (A: <8 μg/mL) | A (A: <8 μg/mL) | A (A: <8 μg/mL) | A (A: <8 μg/mL) | A (A: <8 μg/mL) | A (A: <8 μg/mL) | A (A: <8 μg/mL) | C (C: 16-128 μg/mL) | A (A: <8 μg/mL) | A (A: <8 μg/mL)
NC(=O)[C@@H]1CC[C@@H]2CN1C(=O)N2OS(=O)(=O)O [Avibactam, reference compound] | A (A: <8 μg/mL) | A (A: <8 μg/mL) | A (A: <8 μg/mL) | A (A: <8 μg/mL) | A (A: <8 μg/mL) | C (C: 16-128 μg/mL) | A (A: <8 μg/mL) | A (A: <8 μg/mL) | A (A: <8 μg/mL) | A (A: <8 μg/mL) | A (A: <8 μg/mL) | A (A: <8 μg/mL) | A (A: <8 μg/mL) | C (C: 16-128 μg/mL) | A (A: <8 μg/mL) | A (A: <8 μg/mL)
NCc1cc([C@@H]2CC3(CC3)[C@@H]3CN2C(=O)N3OS(=O)(=O)O)no1 [Example 35, (1R,4S)-4-(5-(aminomethyl)-isoxazol-3-yl)-6-oxo-5,7-diazaspiro[bicyclo[3.2.1]octane-2,1′-cyclopropan]-7-yl sulfate] | A (A: <8 μg/mL) | A (A: <8 μg/mL) | C (C: 16-128 μg/mL) | A (A: <8 μg/mL) | A (A: <8 μg/mL) | C (C: 16-128 μg/mL) | A (A: <8 μg/mL) | A (A: <8 μg/mL) | A (A: <8 μg/mL) | A (A: <8 μg/mL) | B (B: 8-16 μg/mL) | A (A: <8 μg/mL) | A (A: <8 μg/mL) | C (C: 16-128 μg/mL) | A (A: <8 μg/mL) | A (A: <8 μg/mL)
N[C@@H]1CCC(c2nnc([C@@H]3CC4(CC4)[C@@H]4CN3C(=O)N4OS(=O)(=O)O)o2)C1 (stereo in doubt) [Example 18, (1R,4S)-4-(5-((1R,3R)-3-aminocyclopentyl)-1,3,4-oxadiazol-2-yl)-6-oxo-5,7-diazaspiro [bicyclo[3.2.1]octane-2,1′-cyclopropan]-7-yl sulfate] | B (B: 8-16 μg/mL) | A (A: <8 μg/mL) | B (B: 8-16 μg/mL) | A (A: <8 μg/mL) | A (A: <8 μg/mL) | C (C: 16-128 μg/mL) | A (A: <8 μg/mL) | A (A: <8 μg/mL) | A (A: <8 μg/mL) | A (A: <8 μg/mL) | A (A: <8 μg/mL) | A (A: <8 μg/mL) | A (A: <8 μg/mL) | B (B: 8-16 μg/mL) | A (A: <8 μg/mL) | A (A: <8 μg/mL)
NC1(Cc2nnc([C@@H]3CC4(CC4)[C@@H]4CN3C(=O)N4OS(=O)(=O)O)o2)CC1 [Example 21, (1R,4S)-4-(5-((1-aminocyclopropyl)methyl)-1,3,4-oxadiazol-2-yl)-6-oxo-5,7-diazaspiro [bicyclo[3.2.1]octane-2,1′-cyclopropan]-7-yl sulfate] | B (B: 8-16 μg/mL) | B (B: 8-16 μg/mL) | C (C: 16-128 μg/mL) | A (A: <8 μg/mL) | A (A: <8 μg/mL) | C (C: 16-128 μg/mL) | A (A: <8 μg/mL) | A (A: <8 μg/mL) | A (A: <8 μg/mL) | A (A: <8 μg/mL) | C (C: 16-128 μg/mL) | A (A: <8 μg/mL) | A (A: <8 μg/mL) | C (C: 16-128 μg/mL) | A (A: <8 μg/mL) | A (A: <8 μg/mL)
